Measured values published in the NIST ThermoML archive (doi:10.1021/je049609w).

How the values were obtained:
[1] = refractive index (Na D-line) (dimensionless); xn = mol fraction of the nth substance listed; details: 101 kPa, Liquid
[2] = xn = mol fraction of the nth substance listed; details: 101 kPa, Liquid

Clc1ccccc1Cl [1,2-dichlorobenzene] + C1COCCO1
Details | mass density, 298.15 K [kg/m3] | mass density, 303.15 K [kg/m3] | mass density, 308.15 K [kg/m3] | refractive index, 298.15 K | refractive index, 303.15 K | refractive index, 308.15 K | speed of sound, 298.15 K [m/s] | viscosity, 298.15 K [mPa·s] | viscosity, 303.15 K [mPa·s] | viscosity, 308.15 K [mPa·s]
[1], x2 = 0 | – | – | – | 1.5499 | 1.5476 | 1.545 | – | – | – | –
[1], x2 = 0.1025 | – | – | – | 1.5374 | 1.5333 | 1.5325 | – | – | – | –
[1], x2 = 0.203 | – | – | – | 1.5269 | 1.5246 | 1.5224 | – | – | – | –
[1], x2 = 0.2983 | – | – | – | 1.5171 | 1.5148 | 1.5125 | – | – | – | –
[1], x2 = 0.3965 | – | – | – | 1.5048 | 1.5023 | 1.4998 | – | – | – | –
[1], x2 = 0.4955 | – | – | – | 1.4924 | 1.4902 | 1.4879 | – | – | – | –
[1], x2 = 0.596 | – | – | – | 1.4799 | 1.4768 | 1.4738 | – | – | – | –
[1], x2 = 0.6976 | – | – | – | 1.4652 | 1.4628 | 1.4604 | – | – | – | –
[1], x2 = 0.7992 | – | – | – | 1.4513 | 1.4484 | 1.4455 | – | – | – | –
[1], x2 = 0.8971 | – | – | – | 1.4365 | 1.4337 | 1.4308 | – | – | – | –
[2], x2 = 0 | 1300.9 | 1295.4 | 1289.7 | – | – | – | 1280 | 1.324 | 1.214 | 1.105
[2], x2 = 0.1025 | 1278.5 | 1272.9 | 1267.3 | – | – | – | 1287 | 1.311 | 1.203 | 1.095
[2], x2 = 0.203 | 1255.8 | 1250.1 | 1244.5 | – | – | – | 1293 | 1.298 | 1.191 | 1.085
[2], x2 = 0.2983 | 1232.9 | 1227.3 | 1221.6 | – | – | – | 1299 | 1.285 | 1.181 | 1.076
[2], x2 = 0.3965 | 1208.5 | 1202.8 | 1197.1 | – | – | – | 1305 | 1.273 | 1.169 | 1.066
[2], x2 = 0.4955 | 1182.5 | 1176.9 | 1171.2 | – | – | – | 1312 | 1.26 | 1.158 | 1.056
[2], x2 = 0.596 | 1154.9 | 1149.3 | 1143.6 | – | – | – | 1319 | 1.247 | 1.147 | 1.047
[2], x2 = 0.6976 | 1125.6 | 1120 | 1114.3 | – | – | – | 1325 | 1.234 | 1.135 | 1.037
[2], x2 = 0.7992 | 1094.7 | 1089.1 | 1083.4 | – | – | – | 1332 | 1.221 | 1.124 | 1.027
[2], x2 = 0.8971 | 1063.3 | 1057.7 | 1051.9 | – | – | – | 1338 | 1.209 | 1.113 | 1.018

C1COCCO1 [1,4-dioxane] + CC(=O)N(C)C
x1 = 1
Details | mass density, 298.15 K [kg/m3] | mass density, 303.15 K [kg/m3] | mass density, 308.15 K [kg/m3] | refractive index, 298.15 K | refractive index, 303.15 K | refractive index, 308.15 K | speed of sound, 298.15 K [m/s] | viscosity, 298.15 K [mPa·s] | viscosity, 303.15 K [mPa·s] | viscosity, 308.15 K [mPa·s]
[1] | – | – | – | 1.4203 | 1.4164 | 1.4145 | – | – | – | –
[2] | 1028.6 | 1022.9 | 1017.2 | – | – | – | 1345 | 1.196 | 1.095 | 1.008

C1COCCO1 [1,4-dioxane] + CCCCO
Details | mass density, 298.15 K [kg/m3] | mass density, 303.15 K [kg/m3] | mass density, 308.15 K [kg/m3] | refractive index, 298.15 K | refractive index, 303.15 K | refractive index, 308.15 K | speed of sound, 298.15 K [m/s] | viscosity, 298.15 K [mPa·s] | viscosity, 303.15 K [mPa·s] | viscosity, 308.15 K [mPa·s]
[1], x1 = 0.1014 | – | – | – | 1.3999 | 1.3976 | 1.3952 | – | – | – | –
[1], x1 = 0.2015 | – | – | – | 1.4016 | 1.3992 | 1.3968 | – | – | – | –
[1], x1 = 0.2982 | – | – | – | 1.4032 | 1.4008 | 1.3984 | – | – | – | –
[1], x1 = 0.3995 | – | – | – | 1.4052 | 1.4028 | 1.4003 | – | – | – | –
[1], x1 = 0.4945 | – | – | – | 1.4071 | 1.4046 | 1.4022 | – | – | – | –
[1], x1 = 0.5993 | – | – | – | 1.4095 | 1.4069 | 1.4044 | – | – | – | –
[1], x1 = 0.7023 | – | – | – | 1.4119 | 1.4094 | 1.4068 | – | – | – | –
[1], x1 = 0.802 | – | – | – | 1.4145 | 1.4118 | 1.4093 | – | – | – | –
[1], x1 = 0.9017 | – | – | – | 1.4172 | 1.4145 | 1.4118 | – | – | – | –
[1], x1 = 1 | – | – | – | 1.4203 | 1.4164 | 1.4145 | – | – | – | –
[2], x1 = 0.1014 | 826.1 | 822.1 | 818.1 | – | – | – | 1249 | 2.15 | 1.926 | 1.703
[2], x1 = 0.2015 | 846.7 | 842.4 | 838.1 | – | – | – | 1260 | 1.757 | 1.602 | 1.447
[2], x1 = 0.2982 | 866.9 | 862.4 | 858 | – | – | – | 1270 | 1.489 | 1.347 | 1.204
[2], x1 = 0.3995 | 888.7 | 884 | 879.5 | – | – | – | 1281 | 1.327 | 1.196 | 1.066
[2], x1 = 0.4945 | 909.6 | 904.8 | 900.1 | – | – | – | 1291 | 1.241 | 1.13 | 1.03
[2], x1 = 0.5993 | 933.5 | 928.4 | 923.4 | – | – | – | 1301 | 1.177 | 1.081 | 0.985
[2], x1 = 0.7023 | 957.5 | 952.3 | 947.1 | – | – | – | 1310 | 1.153 | 1.063 | 0.972
[2], x1 = 0.802 | 981.1 | 975.8 | 970.4 | – | – | – | 1320 | 1.162 | 1.07 | 0.979
[2], x1 = 0.9017 | 1004.9 | 999.5 | 994 | – | – | – | 1332 | 1.17 | 1.078 | 0.986
[2], x1 = 1 | 1028.6 | 1022.9 | 1017.2 | – | – | – | 1345 | 1.196 | 1.095 | 1.008

C1COCCO1 [1,4-dioxane] + CCOC(=O)CC(=O)OCC
x1 = 1
Details | mass density, 298.15 K [kg/m3] | mass density, 303.15 K [kg/m3] | mass density, 308.15 K [kg/m3] | refractive index, 298.15 K | refractive index, 303.15 K | refractive index, 308.15 K | speed of sound, 298.15 K [m/s] | viscosity, 298.15 K [mPa·s] | viscosity, 303.15 K [mPa·s] | viscosity, 308.15 K [mPa·s]
[1] | – | – | – | 1.4203 | 1.4164 | 1.4145 | – | – | – | –
[2] | 1028.6 | 1022.9 | 1017.2 | – | – | – | 1345 | 1.196 | 1.095 | 1.008
